Source: patent US7968093B2, “Fully human antibodies directed against the human insulin-like growth factor-1 receptor” (ImClone LLC, priority 2003, dated 2011)

Assays:
[1] = system: MCF7 human breast cancer; assay: MCF7 xenograft, A12 monotherapy; assay type: in vivo, nude mice
Description: In order to assess its activity on MCF7 tumor growth in vivo, a mouse xenograft tumor model was utilized. MCF7 cells were originally isolated from an estrogen-dependent human tumor and require exogenously added estrogen for maintenance and growth in vivo. Nude mice were implanted with biodegradable estrogen pellets (0.72 mg 17-β-estradiol/pellet, 60 day release). In addition, at the time of subcutaneous tumor cell injection, the mice were also injected in the right flank subcutaneously with 0.5 mg of estradiol in a 50 μl suspension of sesame seed oil. Tumors were allowed to establish a size of approximately 150 mm^3 before antibody treatment was initiated. Antibody was injected at 1 mg, 100 μg, and 10 μg doses every three days and continued for the duration of the experiment. At 29 days, treatment of animals with 1 mg of A12 effected an 89% reduction in tumor growth (FIG. 25). Minimal growth was apparent for the established tumors in this treatment group.

[2] = biological target: T1, IGF-IR on MCF7 cells (Homo sapiens, UniProt P08069); assay: Internalization of 125I-A12 after binding to IGF-IR; assay type: cell-based; details: 37° C., 30-180 minutes
T1 construct: endogenous in cells
Description: Antibody A12 was radio-iodinated with ^125iodine using IODO-beads (Pierce) according to manufacturer's instructions. MCF7 human breast cancer cells were plated into 6-well plates and cultured overnight to 50% confluence. One microgram of ^125I-A12 was added to each well and incubated at 37° C. or kept on ice at 4° C. Plates were incubated for 30 minutes, 90 minutes, or 180 minutes and each time point performed in triplicate. The culture at 4° C. was held for 180 minutes. At each time point, wells were washed 1× w/PBS, then stripped for 5 minutes with 100 mM glycine-HCl, 2M urea, pH 2.5. The stripped material, representing membrane bound antibody was kept on ice for counting. Wells were then washed 3 times with PBS and cells solubilized with 1N NaOH/1% TritonX100. The solubilized fraction represented the internalized antibody. Stripped and solubilized fractions were then read on a gamma counter and plotted with standard deviation.

A12: fully human IgG1 anti-IGF-IR antibody, lambda light chain; VH SEQ ID NO:2, VL SEQ ID NO:10; affinity matured from 2F8
reduction in tumor growth ([1]; 1 mg every three days, at 29 days): 89% | tumor regression ([1]; antibody alone 1 mg/dose, continued to termination (50 days)): tumor regression was observed | internalization of labeled antibody [2]: rapidly internalized
